Columns and labels:
[1] = target: T1, porcine pancreatic amylase (Sus scrofa, UniProt P00690); assay: α-Amylase inhibitory activity; assay type: biochemical; details: mean ± SD, triplicates; read-out: α-Amylase enzyme IC50 (converted)
T1 construct: purchased Frutarom (UK)
T1 sequence (P00690 16-511): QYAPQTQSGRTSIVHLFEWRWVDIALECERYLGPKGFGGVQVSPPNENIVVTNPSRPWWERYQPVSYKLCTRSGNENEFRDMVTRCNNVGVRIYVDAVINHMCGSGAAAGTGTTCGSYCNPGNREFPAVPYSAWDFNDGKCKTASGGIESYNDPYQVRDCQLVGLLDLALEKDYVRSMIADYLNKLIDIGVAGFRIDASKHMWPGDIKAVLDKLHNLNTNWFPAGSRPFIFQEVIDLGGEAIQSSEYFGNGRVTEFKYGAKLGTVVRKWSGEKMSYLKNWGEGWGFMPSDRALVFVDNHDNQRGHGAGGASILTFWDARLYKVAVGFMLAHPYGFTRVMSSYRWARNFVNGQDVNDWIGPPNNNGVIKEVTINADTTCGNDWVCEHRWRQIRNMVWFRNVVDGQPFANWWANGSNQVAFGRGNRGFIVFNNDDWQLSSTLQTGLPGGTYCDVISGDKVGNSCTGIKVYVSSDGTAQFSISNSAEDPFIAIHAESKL
Experimental: The α-amylase inhibitory evaluation was established following the Wickramaratne et al. procedure[13] with minor changes. Working solutions with concentrations of 10, 50, 100, 500, and 1000 µg/ml were produced from our synthesized compounds, diluting them with a buffer of Na2HPO4/NaH2PO4 (0.02 M), NaCl (0.006 M) at pH 6.9 and then brined up to 10 ml using a 10 ml volumetric flask. […] As percent inhibition, the enzyme inhibitory potential was expressed, and the following equation was utilized to estimate the IC50 dose for the samples[14]. %a-AmylaseInhibiton=Abs100%control-AbsSample/Abs100%Control×100

[2] = target: α-glucosidase; assay: α-Glucosidase (α-glycosidase) inhibitory activity, PNPG substrate; assay type: biochemical; details: mean ± SD, triplicates
Experimental: The inhibition of α-glucosidase activity by the synthesized molecules was measured. The α-glucosidase inhibitory activity is expressed as percentages of inhibition, which was calculated using the following formula: Inhibitoryeffect%=Ab-As/Ab∗100% where Ab and As are the absorbance values of the blank (containing PBS, α-glucosidase, and PNPG, the colored substrate of glucosidase) and the tested samples containing PBS, samples, α-glycosidase, and PNPG, respectively. The α-glucosidase activity was measured using 10 and 20 mg/ml of the synthesized molecules. Each concentration was recorded by using […] PNPG. The inhibitory pattern was assessed using a Lineweaver–Burk plot. The constant Ki of enzyme inhibitory effect was determined.

[3] = target: T2, porcine pancreatic lipase enzyme (Sus scrofa, UniProt P00591); assay: Porcine pancreatic lipase inhibition (p-nitrophenyl butyrate hydrolysis); assay type: biochemical; details: read-out: Anti-lipase activity IC50 (converted)
T2 construct: purchased Frutarom (UK)
T2 sequence (P00591 1-450): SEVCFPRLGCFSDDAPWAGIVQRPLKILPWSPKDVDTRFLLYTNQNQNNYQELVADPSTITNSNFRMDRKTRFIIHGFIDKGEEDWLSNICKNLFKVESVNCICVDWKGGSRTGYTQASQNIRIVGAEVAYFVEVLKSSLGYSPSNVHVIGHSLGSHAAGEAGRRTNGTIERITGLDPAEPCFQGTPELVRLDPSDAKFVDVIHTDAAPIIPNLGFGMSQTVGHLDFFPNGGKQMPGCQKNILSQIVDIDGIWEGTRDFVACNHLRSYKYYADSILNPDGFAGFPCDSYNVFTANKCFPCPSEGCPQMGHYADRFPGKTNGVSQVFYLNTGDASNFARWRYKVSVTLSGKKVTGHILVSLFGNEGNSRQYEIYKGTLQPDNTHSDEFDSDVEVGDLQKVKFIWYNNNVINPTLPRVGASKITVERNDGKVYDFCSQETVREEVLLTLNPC
Experimental: The lipase inhibitory activity was conducted by following the method in the references with minor modifications[19]–[21]. The prepared synthesized compounds solutions (1 mg/ml) were diluted with 10% DMSO to produce five different dilutions (0.2, 0.4, 0.6, 0.8, and 1 mg/ml). […] A Tris–HCl buffer was used to zero UV–Vis spectrophotometer at 405 nm.
The hydrolysis of p-nitrophenyl butyrate to p-nitrophenyl was used to measure the influence of the synthetic acid esters on the porcine pancreatic lipase enzyme.

[4] = DPPH free radical scavenging test; details: 517 nm, 30 min incubation
Experimental: Four synthetic compounds were tested for the efficiency of scavenging free radicals matched with trolox and gallic acid as a basic. From the compounds, 1 mg/ml concentration solutions in methanol were prepared, and the solutions were used to prepare concentrations of 5, 10, 20, 30, 40, and 50 μg/ml. The DPPH reagent (0.002% w/v) was dissolved in methanol before mixed with working concentrations in ratios of 1:1:1 (compound:DPPH:methanol). The methanol solution was adopted as a blank. All the solutions were incubated for 30 min at room temperature in the dark. When the antioxidant compound reacts with DPPH, which can donate hydrogen, it is reduced the color changes from deep violet to light. Absorbance values were estimated by using a UV–Vis spectrophotometer at a wavelength of 517 nm. The DPPH inhibition percentage of all tested compound, trolox and gallic acid, was estimated according to the formula: Inhibitionpercentage=Ab-As/Ab×100%, where Ab is blank absorbance, and AS is sample absorbance. The IC50 values for tested synthetic compounds, trolox and gallic acid were determined from the curves.

[5] = β-Carotene linoleic acid antioxidant test; details: concentration 0.2 mg/ml; for Absorbance in β-carotene linoleic acid test: after 75 min, 470 nm; for Antioxidant efficiency in β-carotene linoleic acid test: compared with water (control) and α-tocopherol
Experimental: The activity of the synthesized compounds was assessed via performing a modified assay of Gazzani and Miller[17]. The method was based on the coupled oxidation of β-carotene and linoleic acid emulsion. The bleaching mechanism of β-carotene is produced from the hydro-peroxides created from linoleic acid[18]. During the oxidation process, the characteristic orange color of β-carotene and the chromophore will be lost. The presence of antioxidants can hinder the extent of the β-carotene bleaching. Briefly, 1 mg of β-carotene was dissolved in 2 ml of chloroform, 20 mg of linoleic acid, and 200 mg of Tween 20. A rotary evaporator entirely vaporized chloroform at a temperature of less than 30 °C under reduced pressure. Then 200 ml of distilled water saturated with oxygen was added to the flask, which was shaken vigorously for 30 min. A sample (5 ml) of the prepared emulsion was transferred to a series of tubes containing 0.1 ml of the synthesized compounds or tocopherol (2 mg/ml).
The control sample was prepared in the same way but without added antioxidants. Each sample type was prepared in triplicate. The samples were inserted in a water bath at 50 °C for 2 h. The absorbance of the samples was measured using a spectrophotometer at a wavelength of 470 nm, immediately after the preparation of the samples, and at 15-min intervals until the end (t = 120 min) of the experiment.

Row | SMILES | IC50 [1] | α-Glycosidase enzyme IC50 [2] | IC50 [3] | Antioxidant activity IC50, DPPH test [4] | Absorbance in β-carotene linoleic acid test [5] | Antioxidant efficiency in β-carotene linoleic acid test [5]
1 | O=C(OCCSc1ccccc1)c1cccc(O)c1 [Compound 2c] | 71.3 µM | 78.1 ± 0.76 µg/mL | 1240 µM | – | – | –
2 | O=C(O)c1cc(O)c(O)c(O)c1 [Gallic acid, gallic acid] | – | – | – | 31.72 ± 1.22 µg/mL | – | –
3 | O=C(OCCSc1ccccc1)c1ccccc1O [Compound 2b] | 45.3 µM | 89.95 ± 0.49 µg/mL | – | – | 0.84 | higher antioxidant efficiency
4 | Cc1c(C)c2c(c(C)c1O)CC[C@@](C)(C(=O)O)O2 [Trolox, (S)-(–)-6 hydroxy-2,5,7,8-tetramethychroman-2-carboxylic acid] | – | – | – | 4.28 ± 0.47 µg/mL | – | –
5 | O=C(OCCSc1ccccc1)c1ccccc1 [Compound 2a] | 13.8 µM | 10.09 ± 0.70 µg/mL | 418 µM | 47.01 ± 1.07 µg/mL | 1.04 | higher antioxidant efficiency
6 | O=C(OCCSc1ccccc1)c1ccc(O)cc1 [Compound 2d] | 48.9 µM | 114.17 ± 1.04 µg/mL | 434 µM | – | – | –

Reference: PMC8873473, “Antidiabetic, antioxidant, and anti-obesity effects of phenylthio-ethyl benzoate derivatives, and molecular docking study regarding α-amylase enzyme” (Scientific Reports, 2022)
